Data on three molecules can be found in patent US20260159561A1 (MyNeuroCure Oy, priority 2017, published 2026).

For series [1], the system named is ER stressed superior cervical ganglia (SCG) sympathetic neurons. Nature of the series: Survival of tunicamycin ER-stressed SCG neurons microinjected with expression plasmids. The following applies: expressed from microinjected plasmids; tunicamycin 2 μM; counted after three days. The class given is cell-based, mouse. The procedure:
(§1) Non-neuronal cells were removed by extensive preplating. Almost pure neurons were cultured in polyornithine/laminin (Sigma)-coated 35-mm plastic dishes in the small-size standard microislands in the Neurobasal medium and B27 supplement (Invitrogen/Gibco) in the presence of 30 ng/ml mouse nerve growth factor (NGF) (Promega) for 5-6 days. NGF was deprived by extensive washing and addition of the function-blocking anti-NGF antibodies (Roche). The neurons were pressure-microinjected with special neuronal microinjection equipment (Hellman et al., 2011; Hamner et al., 2001; Lindholm et al., 2002; Sun et al., 2001; Yu et al., 2003)(Sun et al., 2001; Sun et al., 2003). For the survival assay, all neurons on the microislands were counted in the beginning (initial number) and the end (three days) of the experiment and expressed as % of initial.
(§2) Microinjection of the sympathetic neurons was performed as described earlier (Yu, L. Y., Jokitalo, E., Sun, Y. F., Mehlen, P., Lindholm, D., Saarma, M., and Arumäe, U. (2003) J. Cell Biol. 163, 987-997). […] Next day tunicamycin (2 μM) was added, and after 3 days the living fluorescent neurons were counted. Living fluorescent (EGFP-expressing or Dextran Texas Red-containing) neurons were “blindly” counted three days later and expressed as percent of initial living fluorescent neurons counted 2-3 hours after microinjection. […]

The next series has as its system ER stressed SCG neurons. Nature of the series: Survival of tunicamycin ER-stressed SCG neurons microinjected with recombinant protein. The class given is cell-based, mouse. Conditions: recombinant protein microinjected into the cytoplasm; tunicamycin 2 μM; counted after 3 days. The procedure: as §1, §2
The test system of series [2] is Huntington's disease rat model (quinolinic acid). Nature of the series: Quinolinic acid Huntington's disease rat model, rotarod and grip strength. The following applies: single intrastriatal injection 2 weeks after QA, equimolar to CDNF 10 micrograms, vs QA+PBS. It is filed as in vivo. An excerpt:
Adult Wistar rats received a single, unilateral intrastriatal injection of quinolinic acid (QA) 225 nmol into coordinates: A/P+0.7; L/M+2.8; D/V −6.0. Quinolinic acid is a toxin that induces striatal neuron death by an excitotoxic process. […] Rats were randomized to groups before the treatments started. Rotarod and grip strength tests were done weekly.
Background: In the rotarod test animals must keep their balance on a rotating rod.

Series [3] has as its system rats in the 6-OHDA model of Parkinson's disease. The following applies: applied before the toxin; cited from earlier work.
Another series deals with E14 dopamine neurons. Nature of the series: Internalization of iodinated proteins into dopamine neurons. The class given is cell-based, mouse. Conditions: 30,000 cpm iodinated protein, 37° C., 2 hr, acid wash. The procedure: 2 hr. The cells were transferred to ice and washed once with 0.5 ml of the ice cold media. Then cells were transferred to Eppendorf tubes and washed at 4° C. once with 0.2M acetic acid, 0.5M NaCl, pH 2.8.

The next series concerns rat PC6 cells. Nature of the series: Internalization of iodinated proteins into PC6.3 cells. The class given is cell-based. Conditions: PC6 cells with or without thapsigargin, 90 min, acid wash. Here is the method: Rat PC6.3 pheochromocytoma cells were grown on the 24 well plate in DMEM culture with 10% FCS and 5% horse serum. […] 90 min. The cells were put on ice, washed once with 0.5 ml of the ice cold media. Then cells were transferred to Eppendorf tubes and washed once with 0.2M acetic acid, 0.5M NaCl, pH 2.8. After centrifugation at 1000 g for 10 min cells were dissolved in 0.5 ml of 0.5 N NaOH and counted in Wizard 3 1480 Automatic Gamma Counter (Perkin Elmer, Wallac).

As to “CDNF: cerebral dopamine neurotrophic factor; mature human CDNF, SEQ ID NO: 7, 161 amino acids”, the “living fluorescent neurons, percentage of initial neurons” value in series [1] was “rescue ER stressed superior cervical ganglia (SCG) sympathetic neurons”; in the series with ER stressed SCG neurons, “rescue ER stressed SCG neurons”. Besides, in series [2], the “rotarod latency to fall (motor behavior)” value is reported as “not CDNF improved motor behavior statistically significantly”. The “6-OHDA-induced behavioral and histological symptoms” value in series [3] is “potently prevent the 6-OHDA-induced behavioral and histological symptoms”.
Turning to “^125I-CDNF: full length CDNF iodinated with 125I-Na using the lactoperoxidase method”, in the series with E14 dopamine neurons, the “radioactivity inside the cells (internalization)” value was “not ^125I-CDNF is efficiently internalized”. Also, the “radioactivity inside the cells (cell membrane penetration)” value in the series with rat PC6 cells is reported as “not full length iodinated CDNF penetrate cell membrane”.

B1: MANF: mesencephalic astrocyte-derived neurotrophic factor; mature human MANF, SEQ ID NO: 9, 158 amino acids (protein, listed as Homo sapiens)
chain: LRPGDCEVCISYLGRFYQDLKDRDVTFSPATIENELIKFCREARGKENRLCYYIGATDDAATKIINEVSKPLAHHIPVEKICEKLKKKDSQICELKYDKQIDLSTVDLKKLRVKELKKILDDWGETCKGCAEKSDYIRKINELMPKYAPKAASARTDL
As to B1, in series [3], the “6-OHDA-induced behavioral and histological symptoms” value is “potently prevent the 6-OHDA-induced behavioral and histological symptoms”.
